Test results from patent US4451485A, “Treatment of cardio-vascular diseases with 3-(2,2,2-trimethylhydrazinium) propionate dihydrate” (Institu Organicheskogo Sinteza Akademii Nauk Latviiskoi SSR, priority 1981, dated 1984).

Assays:
[1] = Clinical study in patients with ischemic heart disease, peroral, 4 weeks; assay type: in vivo, men and women (patients with IHD); conditions: for hemodynamic impact: before treatment 14.6 + 1.2; for pulse pressure: before treatment 47.6 + 0.6; for isometric contraction: before treatment 53 + 2; for asynchron. contraction: before treatment 56 + 2; for distolic pressure: before treatment 68.2 + 0.6; for heart rate: before treatment 72.3 + 1.5; for average dynamic pressure: before treatment 89.7 + 1.2; for tension period: before treatment 109 + 4; for lateral systolic pressure: before treatment 115.8 + 0.5; for final systolic pressure: before treatment 130.4 + 2.0; for expulsion phase: before treatment 222 + 4; for rate of heart relaxation: before treatment 250 + 9; for volume of heart ejection: before treatment 315 + 15; for diastol.: before treatment 499 + 14; for involution period: before treatment 830 + 26; for rate of pressure raise: before treatment 1,188 + 30
Text: The following hemodynamic parameters were studied: rate of the heart's beat (RHB), electrocardiogram (ECG), all types of arterial pressure with the curve recording on a Mechanocardiograph 063 (Savitsky's model), beat ejection according to the Wremser-Ranke method, speed of pulse wave propagation, phase analysis of the left ventricle systole on an instrument Mingograph M-34, as well as amplitude time parameters (volume rate of ejection VRE, speed of pressure growth (SPG), rate of heart relaxation (RHR)).
For evaluation of contraction properties of myocardium separately during its systolic and diastolic periods of contraction there were used amplitude-time characteristics rate of heart ejection (RHE), rate of pressure rise (RPR) and rate of heart relaxation (RHR).
The rate of heart ejection (RHE) is determined by the formula: (BV6/E), wherein BV--beat volume in ml, E--time of the expulsion phase in seconds.
The rate of pressure rise is determined by the formula: [formula] wherein DP--diastolic pressure in mm, Hg, 5--conventional value of the final diastolic pressure in the aorta, IC--isometric contraction. RPR characterized contractive properties of the myocardium during the period of closed valves and its ability to rapidly surpass the value of pressure in the aorta for opening of the aortic valves.
The rate of heart relaxation (RHR) characterizes activity of the myocardium at the moment of diastole and is determined by the formula [formula] wherein SP--systolic pressure in the brachial artery in mm Hg, 5--conventional value of the final diastolic pressure in the aorta, D--duration of the diastolic period in seconds.

[2] = Coronary circulation and hemodynamics in narcotized cats; assay type: in vivo
Description: In acute experiments on narcotized cats with a mass of from 2.9 to 4.1 kg under artificial respiration, arterial pressure was recorded in the common carotide artery, central venous pressure in the right auricle, volume rate of blood flow in the ascending aortic arch and volume rate of the coronary blood flow. At the same time, there was recorded the content of oxyhemoglobin in venous coronary blood.

[3] = Variation of arrhythmogenic and lethal doses of CaCl2 in mice; assay type: in vivo, white mice
Description: Thus, the effect of the preparation according to the present invention has been studied relative to the variation of arrhythmogenic and lethal doses of calcium chloride. An experiment was carried out on white mice of both sexes weighing 19-28 g which were narcotized by urethane and an ECG was remetered in transthoracic lead. A 2% solution of calcium chloride was administered to the test animals into the tail vein at a constant rate (0.1 ml for 15 seconds). The average dose of calcium chloride causing the appearance of arrhythmia and heart arrest was determined. In the test groups, the studied compounds were administered 45, 60, 120, 180 and 240 minutes before the beginning of administration of calcium chloride (Table 1).
Variation of arrthythmogenic and lethal doses of CaCl2
with time after administration of the studied
pharmaceutical compositions in experiments on mice.

[4] = Strophanthin arrhythmia in guinea pigs (450 μg/kg); assay type: in vivo
Description: As the third model of arrhythmia, there was used strophanthin arrhythmia in guinea pigs. […] Against the background of arrhythmia the test preparations were administered intravenously.

[5] = 10 mg/kg intraperitoneal, 60 minutes
[6] = 10 mg/kg intraperitoneal, 120 minutes
[7] = 10 mg/kg intraperitoneal, 180 minutes
[8] = 30 mg/kg intraperitoneal, 60 minutes
[9] = 30 mg/kg intraperitoneal, 180 minutes
[10] = 30 mg/kg intraperitoneal, 240 minutes

C[N+](C)(C)NCCC(=O)[O-] [3-(2,2,2-trimethylhydrazinium)propionate]
hemodynamic impact ([1]; 1st week): 18.2 + 1.0
pulse pressure ([1]; 1st week): 46.5 + 1.1
isometric contraction ([1]; 1st week): 49 + 3 millisec.
asynchron. contraction ([1]; 1st week): 55 + 4
distolic pressure ([1]; 1st week): 69.9 + 1.3
heart rate ([1]; 1st week): 67.8 + 1.8 beat/min
average dynamic pressure ([1]; 1st week): 90.6 + 0.7
tension period ([1]; 1st week): 104 + 2 milliseconds
lateral systolic pressure ([1]; 1st week): 116.4 + 2.1
final systolic pressure ([1]; 1st week): 134.6 + 1.6 mm/Hg
expulsion phase ([1]; 1st week): 225 + 2 milliseconds
rate of heart relaxation ([1]; 1st week): 238 + 10 mm Hg/sec
volume of heart ejection ([1]; 1st week): 320 + 23 ml/sec
diastol. ([1]; 1st week): 543 + 21 milliseconds
involution period ([1]; 1st week): 873 + 33
rate of pressure raise ([1]; 1st week): 1,326 + 45 mm Hg/sec
hemodynamic impact ([1]; 2nd week): 24.6 + 0.7
pulse pressure ([1]; 2nd week): 48.6 + 1.6
isometric contraction ([1]; 2nd week): 46 + 4 millisec.
asynchron. contraction ([1]; 2nd week): 54 + 2
distolic pressure ([1]; 2nd week): 70.3 + 0.9
heart rate ([1]; 2nd week): 64.3 + 1.3 beat/min
average dynamic pressure ([1]; 2nd week): 91.2 + 1.2
tension period ([1]; 2nd week): 100 + 4 milliseconds
lateral systolic pressure ([1]; 2nd week): 118.9 + 1.7
final systolic pressure ([1]; 2nd week): 143.5 + 1.8 mm/Hg
expulsion phase ([1]; 2nd week): 230 + 3 milliseconds
rate of heart relaxation ([1]; 2nd week): 229 + 8 mm Hg/sec
volume of heart ejection ([1]; 2nd week): 322 + 13 ml/sec
diastol. ([1]; 2nd week): 603 + 21 milliseconds
involution period ([1]; 2nd week): 933 + 42
rate of pressure raise ([1]; 2nd week): 1,473 + 130 mm Hg/sec
hemodynamic impact ([1]; 3rd week): 24.9 + 1.5
pulse pressure ([1]; 3rd week): 47.8 + 1.4
isometric contraction ([1]; 3rd week): 43 + 2 millisec.
asynchron. contraction ([1]; 3rd week): 56 + 4
distolic pressure ([1]; 3rd week): 72.3 + 1.4
heart rate ([1]; 3rd week): 60.1 + 1.6 beat/min
average dynamic pressure ([1]; 3rd week): 92.0 + 1.8
tension period ([1]; 3rd week): 99 + 3 milliseconds
lateral systolic pressure ([1]; 3rd week): 120.1 + 1.4
final systolic pressure ([1]; 3rd week): 145.0 + 2.4 mm/Hg
expulsion phase ([1]; 3rd week): 232 + 4 milliseconds
rate of heart relaxation ([1]; 3rd week): 209 + 8 mm Hg/sec
volume of heart ejection ([1]; 3rd week): 374 + 14 ml/sec
diastol. ([1]; 3rd week): 669 + 14 milliseconds
involution period ([1]; 3rd week): 1000 + 42
rate of pressure raise ([1]; 3rd week): 1,581 + 54 mm Hg/sec
hemodynamic impact ([1]; 4th week): 25.0 + 0.7
pulse pressure ([1]; 4th week): 53.6 + 1.2
isometric contraction ([1]; 4th week): 33 + 2 millisec.
asynchron. contraction ([1]; 4th week): 55 + 3
distolic pressure ([1]; 4th week): 72.0 + 1.8
heart rate ([1]; 4th week): 62.2 + 1.4 beat/min
average dynamic pressure ([1]; 4th week): 92.2 + 1.0
tension period ([1]; 4th week): 88 + 2 milliseconds
lateral systolic pressure ([1]; 4th week): 125.6 + 0.7
final systolic pressure ([1]; 4th week): 150.6 + 2.7 mm/Hg
expulsion phase ([1]; 4th week): 235 + 3 milliseconds
rate of heart relaxation ([1]; 4th week): 226 + 12 mm Hg/sec
volume of heart ejection ([1]; 4th week): 357 + 17 ml/sec
diastol. ([1]; 4th week): 642 + 14 milliseconds
involution period ([1]; 4th week): 965 + 21
rate of pressure raise ([1]; 4th week): 2,030 + 68 mm Hg/sec
Arterial pressure ([1]; peroral): growth of all types of AP
Electrocardiographic findings ([1]; peroral): slight decrease of the rate of the heart's beat, disappearance of auricular and ventricular extrasystoles, reinversion of the T ripple and increase of its positive amplitude
Phase analysis of the left ventricle ([1]; peroral, during the treatment): the involution period T was definitely increased, the phase of expulsion E was reduced, the period of tension PT shortened
Improvement of patients' state ([1]; peroral, first week): considerable improvement of the patients' state of health
Change of arterial pressure ([2]; 2 mg/kg): 0 + -5%
Change of central venous pressure ([2]; 2 mg/kg): 0%
Change of heart output ([2]; 2 mg/kg): 0 + +5%
Increase duration ([2]; 2 mg/kg): 20 min
Volume rate, percent of increase ([2]; 2 mg/kg): 15%
Change of central venous pressure ([2]; 10 mg/kg): -5%
Change of heart output ([2]; 10 mg/kg): +5 - 10%
Increase duration ([2]; 10 mg/kg): 45 min
Volume rate, percent of increase ([2]; 10 mg/kg): 40%
Change of arterial pressure ([2]; 25 mg/kg): -8 - +5%
Change of central venous pressure ([2]; 25 mg/kg): -10%
Change of heart output ([2]; 25 mg/kg): +10 - 20%
Increase duration ([2]; 25 mg/kg): 70 min
Volume rate, percent of increase ([2]; 25 mg/kg): 55%
Therapeutical index higher than carbocromene ([2]; 314 vs. 130): approximately 3 times
Saturation of the venous blood of coronary sinus with oxygen ([2]; in vivo): lastingly increase saturation of the venous blood of coronary sinus with oxygen
Therapeutical index ([2]; in vivo): 314
Arrhythmogenic dose of CaCl2 ([3]; 10 mg/kg intraperitoneal, 45 minutes before CaCl2, control 85): 91.5 mg/kg
Lethal dose of CaCl2 ([3]; 10 mg/kg intraperitoneal, 45 minutes before CaCl2, control 100.9): 101.7 mg/kg
Arrhythmogenic dose of CaCl2 [3, 5]: 103.4 mg/kg
Lethal dose of CaCl2 [3, 5]: 122.2 mg/kg
Arrhythmogenic dose of CaCl2 [3, 6]: 111.9 mg/kg
Lethal dose of CaCl2 [3, 6]: 130 mg/kg
Arrhythmogenic dose of CaCl2 [3, 7]: 110.1 mg/kg
Lethal dose of CaCl2 [3, 7]: 116 mg/kg
Arrhythmogenic dose of CaCl2 [3, 8]: 106.7 mg/kg
Lethal dose of CaCl2 [3, 8]: 122.8 mg/kg
Arrhythmogenic dose of CaCl2 [3, 9]: 117.5 mg/kg
Lethal dose of CaCl2 [3, 9]: 130.2 mg/kg
Arrhythmogenic dose of CaCl2 [3, 10]: 121.9 mg/kg
Lethal dose of CaCl2 [3, 10]: 128 mg/kg
Effect on arrhythmogenic and lethal doses of calcium chloride ([3]; single intraperitoneal administration): increases the arrhythmogenic and lethal doses of calcium chloride
ED50 ([4]; Cavia porcellus, intravenous, read-out: ED50, Strophanthin arrhythmia in guinea pigs): 7.8 ± 2.3 mg/kg
Antiarrhythmic index LD50/ED50, Strophanthin arrhythmia in guinea pigs ([4]; guinea pig, in vivo): 568
Duration for which Strophanthin-induced arrhythmia is cut short / ECG improved ([4]; intravenous): 5 to 20 min
